# Reference: PubChem BioAssay (NCI)
#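 Tested at 5 concentrations; 48 h exposure; 96-well plates; endpoints linearly interpolated, else capped at highest concentration. TGI marks complete inhibition of growth.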
# Tests used:
# Assay in all cases: NCI tumour cell line growth inhibition, 48 h
# OVCAR-8 ovarian = system: OVCAR-8 ovarian
# SW-620 colon = system: SW-620 colon
# UACC-62 melanoma = system: UACC-62 melanoma
# MOLT-4 leukemia = system: MOLT-4 leukemia
# XF 498 CNS = system: XF 498 CNS
# K-562 leukemia = system: K-562 leukemia
# SF-268 CNS = system: SF-268 CNS
# CCRF-CEM leukemia = system: CCRF-CEM leukemia
# HCC-2998 colon = system: HCC-2998 colon
# P388 leukemia = system: P388 leukemia
# KM12 colon = system: KM12 colon
# A498 renal = system: A498 renal
# NCI-H23 lung = system: NCI-H23 lung
# SN12C renal = system: SN12C renal
# NCI-H226 lung = system: NCI-H226 lung
# NCI-H460 lung = system: NCI-H460 lung
# SF-295 CNS = system: SF-295 CNS
# SN12K1 renal = system: SN12K1 renal
# HOP-18 NSCLC = system: HOP-18 NSCLC
# HL-60(TB) leukemia = system: HL-60(TB) leukemia
# KM20L2 colon = system: KM20L2 colon
# U251 CNS = system: U251 CNS
# OVCAR-4 ovarian = system: OVCAR-4 ovarian
# CAKI-1 renal = system: CAKI-1 renal
# HCT-116 colon = system: HCT-116 colon
# SNB-78 CNS = system: SNB-78 CNS
# UO-31 renal = system: UO-31 renal
# OVCAR-5 ovarian = system: OVCAR-5 ovarian
# SF-539 CNS = system: SF-539 CNS
# EKVX NSCLC = system: EKVX NSCLC
# IGROV1 ovarian = system: IGROV1 ovarian
# SK-MEL-5 melanoma = system: SK-MEL-5 melanoma
# OVCAR-3 ovarian = system: OVCAR-3 ovarian
# SK-MEL-28 melanoma = system: SK-MEL-28 melanoma
# SNB-19 CNS = system: SNB-19 CNS
# SK-MEL-2 melanoma = system: SK-MEL-2 melanoma
# SNB-75 CNS = system: SNB-75 CNS
# DLD-1 colon = system: DLD-1 colon
# DMS 114 small cell lung = system: DMS 114 small cell lung
# RPMI-8226 leukemia = system: RPMI-8226 leukemia
# MCF7 breast = system: MCF7 breast
# SK-OV-3 ovarian = system: SK-OV-3 ovarian
# LOX IMVI melanoma = system: LOX IMVI melanoma
# DMS 273 small cell lung = system: DMS 273 small cell lung
# A549 NSCLC = system: A549 NSCLC
# HOP-92 NSCLC = system: HOP-92 NSCLC
# UACC-257 melanoma = system: UACC-257 melanoma
# HT29 colon = system: HT29 colon
# COLO 205 colon = system: COLO 205 colon
# HCT-15 colon = system: HCT-15 colon
# MALME-3M melanoma = system: MALME-3M melanoma
# NCI/ADR-RES ovarian = system: NCI/ADR-RES ovarian
# P388/ADR leukemia = system: P388/ADR leukemia
# HOP-62 NSCLC = system: HOP-62 NSCLC
# RXF 393 renal = system: RXF 393 renal
# 786-0 renal = system: 786-0 renal
# SR leukemia = system: SR leukemia
# NCI-H522 lung = system: NCI-H522 lung
# ACHN renal = system: ACHN renal
# TK-10 renal = system: TK-10 renal
# LXFL 529 NSCLC = system: LXFL 529 NSCLC
# RXF-631 renal = system: RXF-631 renal
# M14 melanoma = system: M14 melanoma
# M19-MEL melanoma = system: M19-MEL melanoma
smiles,measurement,setting,value
C=CCC(O[Si](C)(C)C(C)(C)C)c1cc(O[Si](C)(C)C(C)(C)C)ccc1OC (stereo not given),TGI,OVCAR-8 ovarian,> 100 µM
same,TGI,SW-620 colon,> 100 µM
same,TGI,UACC-62 melanoma,> 100 µM
same,TGI,MOLT-4 leukemia,> 100 µM
same,TGI,XF 498 CNS,> 100 µM
same,TGI,K-562 leukemia,> 100 µM
same,TGI,SF-268 CNS,> 100 µM
same,TGI,CCRF-CEM leukemia,> 100 µM
same,TGI,HCC-2998 colon,> 100 µM
same,TGI,P388 leukemia,> 100 µM
same,TGI,KM12 colon,> 100 µM
same,TGI,A498 renal,> 100 µM
same,TGI,NCI-H23 lung,> 100 µM
same,TGI,SN12C renal,> 100 µM
same,TGI,NCI-H226 lung,> 100 µM
same,TGI,NCI-H460 lung,> 100 µM
same,TGI,SF-295 CNS,> 100 µM
same,TGI,SN12K1 renal,> 100 µM
same,TGI,HOP-18 NSCLC,> 100 µM
same,TGI,HL-60(TB) leukemia,> 100 µM
same,TGI,KM20L2 colon,> 100 µM
same,TGI,U251 CNS,> 100 µM
same,TGI,OVCAR-4 ovarian,> 100 µM
same,TGI,CAKI-1 renal,> 100 µM
same,TGI,HCT-116 colon,> 100 µM
same,TGI,SNB-78 CNS,> 100 µM
same,TGI,UO-31 renal,> 100 µM
same,TGI,OVCAR-5 ovarian,> 100 µM
same,TGI,SF-539 CNS,> 100 µM
same,TGI,EKVX NSCLC,> 100 µM
same,TGI,IGROV1 ovarian,> 100 µM
same,TGI,SK-MEL-5 melanoma,> 100 µM
same,TGI,OVCAR-3 ovarian,> 100 µM
same,TGI,SK-MEL-28 melanoma,> 100 µM
same,TGI,SNB-19 CNS,> 100 µM
same,TGI,SK-MEL-2 melanoma,> 100 µM
same,TGI,SNB-75 CNS,> 100 µM
same,TGI,DLD-1 colon,> 100 µM
same,TGI,DMS 114 small cell lung,> 100 µM
same,TGI,RPMI-8226 leukemia,> 100 µM
same,TGI,MCF7 breast,> 100 µM
same,TGI,SK-OV-3 ovarian,> 96.4 µM
same,TGI,LOX IMVI melanoma,> 100 µM
same,TGI,DMS 273 small cell lung,> 100 µM
same,TGI,A549 NSCLC,> 100 µM
same,TGI,HOP-92 NSCLC,86.6 µM
same,TGI,UACC-257 melanoma,> 100 µM
same,TGI,HT29 colon,> 100 µM
same,TGI,COLO 205 colon,> 100 µM
same,TGI,HCT-15 colon,> 100 µM
same,TGI,MALME-3M melanoma,> 100 µM
same,TGI,NCI/ADR-RES ovarian,> 100 µM
same,TGI,P388/ADR leukemia,> 100 µM
same,TGI,HOP-62 NSCLC,> 100 µM
same,TGI,RXF 393 renal,> 100 µM
CCOc1ccc(NC(=O)/C(CC(=O)c2c[n+](=O)c3ccccc3n2[O-])=N\OCCCc2ccccc2)cc1,TGI,OVCAR-8 ovarian,> 100 µM
same,TGI,SW-620 colon,> 100 µM
same,TGI,UACC-62 melanoma,> 100 µM
same,TGI,786-0 renal,> 100 µM
same,TGI,MOLT-4 leukemia,> 100 µM
same,TGI,K-562 leukemia,> 100 µM
same,TGI,SR leukemia,> 100 µM
same,TGI,SF-268 CNS,> 100 µM
same,TGI,CCRF-CEM leukemia,> 100 µM
same,TGI,HCC-2998 colon,> 100 µM
same,TGI,KM12 colon,> 100 µM
same,TGI,A498 renal,> 100 µM
same,TGI,NCI-H23 lung,> 100 µM
same,TGI,NCI-H522 lung,> 100 µM
same,TGI,SN12C renal,> 100 µM
same,TGI,NCI-H226 lung,> 100 µM
same,TGI,NCI-H460 lung,> 100 µM
same,TGI,SF-295 CNS,> 100 µM
same,TGI,HL-60(TB) leukemia,> 100 µM
same,TGI,KM20L2 colon,> 100 µM
same,TGI,U251 CNS,> 100 µM
same,TGI,OVCAR-4 ovarian,> 100 µM
same,TGI,CAKI-1 renal,> 100 µM
same,TGI,HCT-116 colon,> 100 µM
same,TGI,ACHN renal,> 100 µM
same,TGI,TK-10 renal,> 100 µM
same,TGI,SNB-78 CNS,> 100 µM
same,TGI,UO-31 renal,> 100 µM
same,TGI,OVCAR-5 ovarian,> 100 µM
same,TGI,SF-539 CNS,> 100 µM
same,TGI,EKVX NSCLC,> 100 µM
same,TGI,IGROV1 ovarian,> 100 µM
same,TGI,OVCAR-3 ovarian,> 100 µM
same,TGI,SK-MEL-28 melanoma,> 100 µM
same,TGI,SNB-19 CNS,> 100 µM
same,TGI,SK-MEL-2 melanoma,> 100 µM
same,TGI,SNB-75 CNS,> 100 µM
same,TGI,DLD-1 colon,> 100 µM
same,TGI,DMS 114 small cell lung,> 100 µM
same,TGI,RPMI-8226 leukemia,> 100 µM
same,TGI,SK-OV-3 ovarian,> 100 µM
same,TGI,DMS 273 small cell lung,> 100 µM
same,TGI,A549 NSCLC,> 100 µM
same,TGI,HOP-92 NSCLC,99.6 µM
same,TGI,UACC-257 melanoma,> 100 µM
same,TGI,HT29 colon,> 100 µM
same,TGI,COLO 205 colon,> 100 µM
same,TGI,HCT-15 colon,> 100 µM
same,TGI,MALME-3M melanoma,> 100 µM
same,TGI,LXFL 529 NSCLC,> 100 µM
same,TGI,RXF-631 renal,> 100 µM
same,TGI,M14 melanoma,> 100 µM
same,TGI,HOP-62 NSCLC,> 100 µM
same,TGI,M19-MEL melanoma,> 100 µM
same,TGI,RXF 393 renal,> 100 µM
